Measurements as given in patent US11230526B1, “Cylcoalkenyl derivatives useful as agonists of the GPR120 and/or GPR40 receptors” (Janssen Pharmaceutica NV, priority 2018, dated 2022).
Values belong to the compound of their own block, whether it stands above or below them.

Legend:
Format in all cases: cell-based
[1] = target: T1, long form of human GPR120 (Homo sapiens, UniProt Q5NUL3); assay: Human GPR120 DiscoveRx PathHunter Beta-Arrestin assay, Procedure β-arrestin A
T1 construct: host or cells: PathHunter CHO-K1 GPR120 β-Arrestin Cell Line
In short: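 PathHunter CHO-K1 cells expressing long-form human GPR120 (3000/well) were seeded overnight. They were then preincubated 60 min in HBSS with 20 mM HEPES and 0.1% BSA, pH 7.4, and exposed to compound for 90 min at 37 °C. β-Arrestin recruitment was read as β-gal complementation luminescence. EC50 came from % activity versus positive control, Hill slope fixed at 1.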

Human GPR120 short form = target: T2, Human GPR120 short form (Homo sapiens, UniProt Q5NUL3); assay: Human GPR120 calcium flux assay, Procedure Calcium B (4200 cells/well)
T2 construct: expressed in transfected cells
T2 sequence (Q5NUL3 1-361): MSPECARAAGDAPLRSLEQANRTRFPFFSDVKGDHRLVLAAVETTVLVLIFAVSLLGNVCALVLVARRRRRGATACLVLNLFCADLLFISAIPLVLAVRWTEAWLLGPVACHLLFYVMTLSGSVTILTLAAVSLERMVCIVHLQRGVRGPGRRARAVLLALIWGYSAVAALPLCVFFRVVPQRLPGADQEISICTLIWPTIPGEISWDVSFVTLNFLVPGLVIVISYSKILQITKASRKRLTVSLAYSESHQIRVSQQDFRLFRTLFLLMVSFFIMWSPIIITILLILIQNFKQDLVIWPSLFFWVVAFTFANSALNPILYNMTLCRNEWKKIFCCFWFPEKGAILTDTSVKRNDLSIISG
In short: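 HEK293 cells stably expressing human GPR120 (NM_001195755.1), 4200 cells/well, starved 1 h and loaded with Fluo-4 NW plus probenecid. Ligand-evoked calcium flux read on FLIPR for 300 s after a 10 s baseline. RFU = Fmax−Fmin; EC50 from four-parameter concentration-response fit.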

human GPR40 = target: T3, human GPR40 (Homo sapiens, UniProt O14842); assay: GPR40 calcium flux assay, human GPR40; details: HEK293 cells stably expressing GPR40; table does not say human or rat
T3 construct: expressed in transfected cells
In short: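 Cells preincubated 1 h at 37° C. in HBSS, 20 mM HEPES, 0.1% BSA, then Fluo 8 calcium dye 30 min at 37° C. and 15 min at room temperature.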

T3 sequence (O14842 whole entry): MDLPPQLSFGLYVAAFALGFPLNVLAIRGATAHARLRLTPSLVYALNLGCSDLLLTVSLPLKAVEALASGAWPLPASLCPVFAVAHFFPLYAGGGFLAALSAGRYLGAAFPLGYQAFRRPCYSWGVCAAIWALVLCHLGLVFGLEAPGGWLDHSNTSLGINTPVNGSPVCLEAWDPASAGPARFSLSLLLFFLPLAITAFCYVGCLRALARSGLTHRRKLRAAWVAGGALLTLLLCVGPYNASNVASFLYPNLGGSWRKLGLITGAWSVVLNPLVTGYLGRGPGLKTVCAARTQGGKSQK
T1 sequence (Q5NUL3 1-377 isoform Q5NUL3-1): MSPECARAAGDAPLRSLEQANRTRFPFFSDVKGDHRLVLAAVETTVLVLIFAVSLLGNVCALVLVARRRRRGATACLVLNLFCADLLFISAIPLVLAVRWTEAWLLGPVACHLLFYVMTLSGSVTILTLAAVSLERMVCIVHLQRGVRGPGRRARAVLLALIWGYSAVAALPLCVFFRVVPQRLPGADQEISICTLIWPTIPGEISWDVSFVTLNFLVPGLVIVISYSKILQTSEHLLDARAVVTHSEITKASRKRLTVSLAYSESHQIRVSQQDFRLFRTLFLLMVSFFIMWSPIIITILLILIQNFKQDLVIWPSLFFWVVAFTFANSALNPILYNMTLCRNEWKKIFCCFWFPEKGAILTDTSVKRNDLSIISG
T1 sequence (P32121 whole entry partner): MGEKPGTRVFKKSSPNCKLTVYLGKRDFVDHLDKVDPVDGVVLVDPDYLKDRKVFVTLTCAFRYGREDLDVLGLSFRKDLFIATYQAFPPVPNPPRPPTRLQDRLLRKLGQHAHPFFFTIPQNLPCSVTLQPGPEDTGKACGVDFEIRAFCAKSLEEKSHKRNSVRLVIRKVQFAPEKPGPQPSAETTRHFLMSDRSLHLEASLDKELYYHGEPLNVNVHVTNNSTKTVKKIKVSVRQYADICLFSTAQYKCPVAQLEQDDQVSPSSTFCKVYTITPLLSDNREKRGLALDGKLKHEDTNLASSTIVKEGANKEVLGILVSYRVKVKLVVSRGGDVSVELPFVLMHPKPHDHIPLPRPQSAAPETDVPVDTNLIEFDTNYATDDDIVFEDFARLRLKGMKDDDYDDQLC

Structure (SMILES): Cc1cc(CCC(=O)O)ccc1OCC1=C(c2ccccc2)CC(F)(F)C1 [Compound 193, 3-[4-[(4,4-difluoro-2-phenyl-cyclopenten-1-yl)methoxy]-3-methyl-phenyl]Propanoic Acid]
EC50 [1]: 133 nM | EC50 (Human GPR120 short form): 30 nM | EC50 (human GPR40): > 5000 nM

Structure (SMILES): Cc1ncc(C2=C(COc3ccc(CCC(=O)O)cc3C)CC(F)(F)C2)s1 [Compound 199, 3-[4-[[4,4-difluoro-2-(2-methylthiazol-5-yl)cyclopenten-1-yl]methoxy]-3-methyl-phenyl]Propanoic Acid]
EC50 [1]: 369 nM | EC50 (Human GPR120 short form): 210 nM | EC50 (human GPR40): 1470 nM

Structure (SMILES): O=C(O)CCc1ccc(OCC2=C(c3ccc(F)cc3)CC(F)(F)C2)c(Cl)c1 [Compound 203, 3-[3-chloro-4-[[4,4-difluoro-2-(4-fluorophenyl)cyclopenten-1-yl]methoxy]phenyl]Propanoic Acid]
EC50 [1]: 56 nM | EC50 (Human GPR120 short form): 80 nM | EC50 (human GPR40): > 5000 nM

Structure (SMILES): Cc1cc(CCC(=O)O)cc(F)c1OCC1=C(c2ccc(F)cc2)CC(F)(F)C1 [Compound 204, 3-[4-[[4,4-difluoro-2-(4-fluorophenyl)cyclopenten-1-yl]methoxy]-3-fluoro-5-methyl-phenyl]Propanoic Acid]
EC50 [1]: 359 nM | EC50 (Human GPR120 short form): 125 nM | EC50 (human GPR40): > 5000 nM

Structure (SMILES): Cc1c(CCC(=O)O)ccc(OCC2=C(c3ccco3)CCC2)c1C [Compound 210, 3-[4-[[2-(2-furyl)cyclopenten-1-yl]methoxy]-2,3-dimethyl-phenyl]Propanoic Acid]
EC50 [1]: 110 nM | EC50 (Human GPR120 short form): 137 nM | EC50 (human GPR40): > 5000 nM

Structure (SMILES): O=C(O)CCc1ccc(OCC2=C(c3ccc(F)cc3)CC(F)(F)C2)c(F)c1 [Compound 214, 3-[4-[[4,4-difluoro-2-(4-fluorophenyl)cyclopenten-1-yl]methoxy]-3-fluoro-phenyl]Propanoic Acid]
EC50 [1]: 84 nM | EC50 (Human GPR120 short form): 78 nM | EC50 (human GPR40): > 5000 nM

Structure (SMILES): O=C(O)CCc1cc(F)c(OCC2=C(c3cccc(F)c3)CC(F)(F)C2)c(F)c1 [Compound 215, 3-[4-[[4,4-difluoro-2-(3-fluorophenyl)cyclopenten-1-yl]methoxy]-3,5-difluoro-phenyl]Propanoic Acid]
EC50 [1]: 282 nM | EC50 (Human GPR120 short form): 75 nM | EC50 (human GPR40): > 5000 nM

Structure (SMILES): O=C(O)CCc1cc(F)c(OCC2=C(c3ccc(F)cc3F)CC(F)(F)C2)c(F)c1 [Compound 216, 3-[4-[[2-(2,4-difluorophenyl)-4,4-difluoro-cyclopenten-1-yl]methoxy]-3,5-difluoro-phenyl]Propanoic Acid]
EC50 [1]: 169 nM | EC50 (Human GPR120 short form): 75 nM | EC50 (human GPR40): > 5000 nM

Structure (SMILES): COc1ncc(C2=C(COc3ccc(CCC(=O)O)cc3C)CCC2)cc1F [Compound 222, 3-[4-[[2-(5-fluoro-6-methoxy-3-pyridyl)cyclopenten-1-yl]methoxy]-3-methyl-phenyl]Propanoic Acid]
EC50 [1]: 132 nM | EC50 (Human GPR120 short form): 57 nM | EC50 (human GPR40): > 5000 nM

Structure (SMILES): COc1ncc(C2=C(COc3ccc(CCC(=O)O)c(C)c3C)CCC2)cc1F [Compound 223, 3-[4-[[2-(5-fluoro-6-methoxy-3-pyridyl)cyclopenten-1-yl]methoxy]-2,3-dimethyl-phenyl]Propanoic Acid]
EC50 [1]: 227 nM | EC50 (Human GPR120 short form): 156 nM | EC50 (human GPR40): > 5000 nM

Structure (SMILES): COc1ncc(C2=C(COc3c(F)cc(CCC(=O)O)cc3F)CCC2)cc1F [Compound 224, 3-[3,5-difluoro-4-[[2-(5-fluoro-6-methoxy-3-pyridyl)cyclopenten-1-yl]methoxy]phenyl]Propanoic Acid]
EC50 [1]: 231 nM | EC50 (Human GPR120 short form): 285 nM | EC50 (human GPR40): > 5000 nM

Structure (SMILES): CCOc1ccc(C2=C(COc3ccc(CCC(=O)O)cc3C)CCC2)cn1 [Compound 225, 3-[4-[[2-(6-ethoxy-3-pyridyl)cyclopenten-1-yl]methoxy]-3-methyl-phenyl]Propanoic Acid]
EC50 [1]: 588 nM | EC50 (Human GPR120 short form): 530 nM | EC50 (human GPR40): > 5000 nM

Results, then the compound that gave them:

EC50 [1]: 1290 nM | EC50 (Human GPR120 short form): 724 nM | EC50 (human GPR40): > 5000 nM
Structure (SMILES): CCOc1ccc(C2=C(COc3c(F)cc(CCC(=O)O)cc3F)CCC2)cn1 [Compound 226, 3-[4-[[2-(6-ethoxy-3-pyridyl)cyclopenten-1-yl]methoxy]-3,5-difluoro-phenyl]Propanoic Acid]

EC50 [1]: 238 nM | EC50 (Human GPR120 short form): 124 nM | EC50 (human GPR40): 4930 nM
Structure (SMILES): O=C(O)CCc1ccc(OCC2=C(c3ccc(F)cc3)CC(F)(F)C2)cc1 [Compound 228, 3-[4-[[4,4-difluoro-2-(4-fluorophenyl)cyclopenten-1-yl]methoxy]phenyl]Propanoic Acid]

EC50 [1]: 312 nM | EC50 (Human GPR120 short form): 173 nM | EC50 (human GPR40): 825 nM
Structure (SMILES): O=C(O)CCc1ccc(OCC2=C(c3ccc(F)cc3)CCC(F)(F)C2)cc1C(F)(F)F [Compound 489, 3-[4-[[5,5-difluoro-2-(4-fluorophenyl)cyclohexen-1-yl]methoxy]-2-(trifluoromethyl)phenyl]Propanoic Acid]

EC50 [1]: 122 nM | EC50 (Human GPR120 short form): 75 nM | EC50 (human GPR40): > 5000 nM
Structure (SMILES): Cc1c(CCC(=O)O)ccc(OCC2=C(c3ccc(F)cc3)CCC(F)(F)C2)c1C [Compound 497, 3-[4-[[5,5-difluoro-2-(4-fluorophenyl)cyclohexen-1-yl]methoxy]-2,3-dimethyl-phenyl]Propanoic Acid]

EC50 [1]: 219 nM | EC50 (Human GPR120 short form): 96 nM | EC50 (human GPR40): > 5000 nM
Structure (SMILES): Cc1cc(CCC(=O)O)ccc1OCC1=C(c2ccc(F)cc2)CCC(F)(F)C1 [Compound 498, 3-[4-[[5,5-difluoro-2-(4-fluorophenyl)cyclohexen-1-yl]methoxy]-3-methyl-phenyl]Propanoic Acid]

EC50 [1]: 132 nM | EC50 (Human GPR120 short form): 215 nM | EC50 (human GPR40): > 5000 nM
Structure (SMILES): O=C(O)CCc1ccc(OCC2=C(c3ccc(F)cc3)CCC(F)(F)C2)cc1 [Compound 499, 3-[4-[[5,5-difluoro-2-(4-fluorophenyl)cyclohexen-1-yl]methoxy]phenyl]Propanoic Acid]

EC50 [1]: 155 nM | EC50 (Human GPR120 short form): 364 nM | EC50 (human GPR40): > 5000 nM
Structure (SMILES): Cc1c(CCC(=O)O)ccc(OCC2=C(c3ccc(Cl)cc3)CCC(C(C)C)C2)c1C (stereo not drawn) [Compound 501, 3-[4-[[2-(4-chlorophenyl)-5-isopropyl-cyclohexen-1-yl]methoxy]-2,3-dimethyl-phenyl]Propanoic Acid]

EC50 [1]: 192 nM | EC50 (Human GPR120 short form): 147 nM | EC50 (human GPR40): > 5000 nM
Structure (SMILES): CCC1CCC(c2ccc(Cl)cc2)=C(COc2ccc(CCC(=O)O)c(C)c2C)C1 (stereo not drawn) [Compound 502, 3-[4-[[2-(4-chlorophenyl)-5-ethyl-cyclohexen-1-yl]methoxy]-2,3-dimethyl-phenyl]Propanoic Acid]

EC50 [1]: 639 nM | EC50 (Human GPR120 short form): 255 nM | EC50 (human GPR40): 3750 nM
Structure (SMILES): Cc1cc(OCC2=C(c3ccc(F)cc3)CCC(F)(F)C2)ccc1CCC(=O)O [Compound 518, 3-[4-[[5,5-difluoro-2-(4-fluorophenyl)cyclohexen-1-yl]methoxy]-2-methyl-phenyl]Propanoic Acid]

EC50 [1]: 772 nM | EC50 (Human GPR120 short form): 222 nM | EC50 (human GPR40): 3310 nM
Structure (SMILES): Cc1cc(OCC2=C(c3ccc(Cl)cc3)CCC(F)(F)C2)ccc1CCC(=O)O [Compound 519, 3-[4-[[2-(4-chlorophenyl)-5,5-difluoro-cyclohexen-1-yl]methoxy]-2-methyl-phenyl]Propanoic Acid]

EC50 [1]: 853 nM | EC50 (Human GPR120 short form): 714 nM | EC50 (human GPR40): > 5000 nM
Structure (SMILES): CCC1CCC(COc2ccc(CCC(=O)O)c(C)c2C)=C(c2ccc(Cl)cc2)C1 (stereo not drawn) [Compound 522, 3-[4-[[2-(4-chlorophenyl)-4-ethyl-cyclohexen-1-yl]methoxy]-2,3-dimethyl-phenyl]Propanoic Acid]

EC50 [1]: 121 nM | EC50 (Human GPR120 short form): 165 nM | EC50 (human GPR40): 4030 nM
Structure (SMILES): Cc1ccc(C2=C(COc3c(F)cc(CCC(=O)O)cc3F)CC(F)(F)CC2)cc1F [Compound 525, 3-[4-[[5,5-difluoro-2-(3-fluoro-4-methyl-phenyl)cyclohexen-1-yl]methoxy]-3,5-difluoro-phenyl]Propanoic Acid]

EC50 [1]: 136 nM | EC50 (Human GPR120 short form): 156 nM | EC50 (human GPR40): > 5000 nM
Structure (SMILES): Cc1ccc(C2=C(COc3ccc(CCC(=O)O)c(C)c3C)CC(F)(F)CC2)cc1F [Compound 529, 3-[4-[[5,5-difluoro-2-(3-fluoro-4-methyl-phenyl)cyclohexen-1-yl]methoxy]-2,3-dimethyl-phenyl]Propanoic Acid]

EC50 [1]: 73 nM | EC50 (Human GPR120 short form): 68 nM | EC50 (human GPR40): > 5000 nM
Structure (SMILES): Cc1ccc(C2=C(COc3ccc(CCC(=O)O)cc3C)CC(F)(F)CC2)cc1F [Compound 530, 3-[4-[[5,5-difluoro-2-(3-fluoro-4-methyl-phenyl)cyclohexen-1-yl]methoxy]-3-methyl-phenyl]Propanoic Acid]

EC50 [1]: 187 nM | EC50 (Human GPR120 short form): 133 nM | EC50 (human GPR40): > 5000 nM
Structure (SMILES): Cc1cc(CCC(=O)O)ccc1OCC1=C(c2ccc(F)c(F)c2)CCC(F)(F)C1 [Compound 532, 3-[4-[[2-(3,4-difluorophenyl)-5,5-difluoro-cyclohexen-1-yl]methoxy]-3-methyl-phenyl]Propanoic Acid]
